Measured values reported in patent US20030130177A1, “Use of amylin agonists to modulate triglycerides” (priority 2002, published 2003).

Legend:
[1] = system: patients with type-1 diabetes; assay: Standardized mixed meal test after 4 weeks pramlintide TID added to CSII (Example 1); assay type: in vivo, human
Text: This Study Assesses the Effect of the Amylin Agonist Pramlintide on Post-Prandial Plasma Glucose and Triglyceride Excursions in Patients with Type-1 Diabetes Intensively Treated with Continuous Subcutaneous Insulin Infusion (CSII).
All 23 patients in this study are ≧16 years of age, have type-I diabetes for ≧1 year and have been intensively treated (CSII, basal/bolus regimen) for at least 6 months. Patients are using either lispro (n=21) or regular (n=2) insulin, have not changed their daily insulin dose by more than ±10% for 2 months prior to the study, and have been free from severe hypo- and hyperglycemic symptoms for at least 4 weeks prior to the study. Exclusion criteria include a clinically significant history or presence of heart disease, uncontrolled hypertension (blood pressure ≧160/90 mm Hg), gastrointestinal, hepatic, renal, or central nervous system disorders, acute illness, a history of drug or alcohol abuse, or treatment with drugs known to affect gastrointestinal motility or glucose metabolism.
The study consists of 3 time periods (baseline, 4 weeks on-therapy, 2 weeks off-therapy). At the end of each time period (weeks 0, 4, 6), patients are evaluated at the clinical research center (CRC). Each evaluation includes a standardized meal test.
The first evaluation (baseline) is conducted when patients are solely treated with their usual CSII regimen. After the baseline evaluation, patients are randomized to self-administer either placebo (n=6) or pramlintide (n=17) TID with major meals, in addition to their existing CSII therapy, for 4 weeks. The placebo group is included to provide data that could be used to determine adequate power analyses when planning future studies and not for the purpose of placebo comparisons. […]
On each of the 3 CRC visits, patients undergo a standardized mixed meal test the morning after an overnight fast. […] Blood samples are processed in accordance with standard clinical practice using a reference lab and commercially available products (e.g., quantitative enzymatic in vitro assay for Triglycerides GPO-PAP, Roche Diagnostics). […]

[2] = system: subjects with type 1 diabetes; assay: Single-dose crossover study of pramlintide injection timing relative to a standardized breakfast, type 1 diabetes (Example 2); assay type: in vivo, human; conditions: pramlintide 60 μg SC, -15 to +30 min relative to meal
Text: (§1) In this example, a randomized, single-blind, placebo-controlled, five-way crossover study is designed to examine the effect of the timing of pramlintide injection relative to meal ingestion on postprandial plasma glucose profiles and triglycerides in subjects with type 1 diabetes and subjects with type 2 diabetes using insulin. Three study groups are defined by diabetes type and mealtime insulin used in their treatment regimen. On 5 study days, subjects receive a single dose of one of five treatments (A, B, C, D, or E) in random order:
(§2) Each treatment (pramlintide or placebo) is administered subcutaneously (SC) within specified times relative to a standardized breakfast after an overnight fast. Subjects are randomly assigned to one of four treatment sequences according to a randomization schedule generated for each study group.
(§3) Subjects with type 1 diabetes received pramlintide 60 μg or placebo (equivalent volume). Subjects with type 2 diabetes using insulin receive pramlintide 120 μg or placebo (equivalent volume). Subjects maintain their usual insulin regimen during the study; if necessary, insulin dose adjustments are made in consultation with study personnel to facilitate achievement of fasting fingerstick glucose values in the range of ≧80 mg/dL and ≦250 mg/dL while avoiding hypoglycemia. The timing of the short-acting insulin dose relative to the standardized breakfast is based on recommendations in the respective package inserts for the insulin (0 min for insulin lispro and −30 min for regular insulin).
The study population consists of three study groups, defined by diabetes type and type of mealtime insulin used in their treatment regimen. Study Group 1: Subjects with type 1 diabetes using insulin lispro. Study Group 2: Subjects with type 1 diabetes using regular insulin. Study Group 3: Subjects with type 2 diabetes using insulin lispro. Fifty-nine subjects (21 type 1 subjects using insulin lispro; 19 type 1 subjects using regular insulin; and 19 type 2 subjects using insulin lispro) are enrolled in this study.

[3] = system: subjects with type 2 diabetes using insulin; assay: Single-dose crossover study of pramlintide injection timing relative to a standardized breakfast, type 2 diabetes using insulin (Example 2); assay type: in vivo, human; conditions: type 2 patients treated with lispro insulin, pramlintide 120 μg SC, -15 to +30 min relative to meal
Text: as §1, §2
as §3, with “The timing of the short-acting insulin dose relative to the standardized breakfast is based on recommendations in the respective package inserts for the insulin (0 min for insulin lispro and −30 min for regular insulin).” left out

[4] = system: patients with type-1 diabetes; conditions: mealtime s.c. injections in addition to mealtime insulin, cited from earlier work

Question: For `CC[C@H](C)[C@H](NC(=O)[C@@H]1CCCN1C(=O)CNC(=O)[C@H](Cc1ccccc1)NC(=O)[C@H](CC(N)=O)NC(=O)[C@H](CC(N)=O)NC(=O)[C@H](CO)NC(=O)[C@H](CO)NC(=O)[C@H](Cc1c[nH]cn1)NC(=O)[C@@H](NC(=O)[C@H](CC(C)C)NC(=O)[C@H](Cc1ccccc1)NC(=O)[C@H](CC(N)=O)NC(=O)[C@H](C)NC(=O)[C@H](CC(C)C)NC(=O)[C@H](CCCNC(=N)N)NC(=O)[C@H](CCC(N)=O)NC(=O)[C@@H](NC(=O)[C@H](C)NC(=O)[C@@H]1CSSC[C@H](NC(=O)[C@@H](N)CCCCN)C(=O)N[C@@H](CC(N)=O)C(=O)N[C@@H]([C@@H](C)O)C(=O)N[C@@H](C)C(=O)N[C@@H]([C@@H](C)O)C(=O)N1)[C@@H](C)O)C(C)C)C(=O)N[C@@H](CC(C)C)C(=O)N1CCC[C@H]1C(=O)N1CCC[C@H]1C(=O)N[C@H](C(=O)N[C@@H](CC(N)=O)C(=O)N[C@H](C(=O)NCC(=O)N[C@@H](CO)C(=O)N[C@@H](CC(N)=O)C(=O)N[C@H](C(=O)N[C@@H](Cc1ccc(O)cc1)C(N)=O)[C@@H](C)O)C(C)C)[C@@H](C)O` [pramlintide, ^25, 28, 29Pro-h-amylin], which “post-prandial triglyceride excursions, mean incremental AUC” value ([1]; end of 4-week pramlintide treatment period, s.c. 15 min prior to meal, plus CSII, baseline period 65.7±87.6, p<0.05) is on record?
Answer: Its value is 16.7 ± 56.8 mg·min/dL.

Question: What about the “post-prandial glucose response to a mixed meal” value ([1]; pramlintide added to insulin, type-1 diabetic patients) of the same molecule?
Answer: The value was “reduces”.

Question: What about the “post-prandial triglyceride excursions, mean incremental AUC” value ([1]; week 6, 2 weeks after return to pre-treatment therapy (CSII only), off-therapy) of the same molecule?
Answer: The value was 56.2 ± 87.3 mg·min/dL.

Question: What about the postprandial glucose excursions ([2]; type 1 patients treated with lispro insulin) of the same molecule?
Answer: The postprandial glucose excursions was “markedly improves”.

Question: And the postprandial triglyceride concentrations ([2]; type 1 patients treated with lispro insulin, FIG. 2)?
Answer: Its postprandial triglyceride concentrations is “markedly improves”.

Question: What about the postprandial glucose excursions ([2]; type 1 patients treated with regular insulin) of the same molecule?
Answer: Its postprandial glucose excursions is “markedly improves”.

Question: And the postprandial triglyceride concentrations ([2]; type 1 patients treated with regular insulin, FIG. 3)?
Answer: The postprandial triglyceride concentrations was “markedly improves”.

Question: What about the postprandial glucose excursions [3] of the same molecule?
Answer: Its postprandial glucose excursions is “markedly improves”.

Question: And the postprandial triglyceride concentrations ([3]; FIG. 4)?
Answer: Its postprandial triglyceride concentrations is “markedly improves”.

Question: And the “rate of gastric emptying” value ([4]; Kong et al. 1998)?
Answer: The value was “slows”.

Question: And the mealtime glucagon secretion ([4]; Nyholm et al. 1999, Fineman et al. 2002)?
Answer: Its mealtime glucagon secretion is “suppresses”.

Question: What about the post-prandial glucose excursions ([4]; Nyholm et al. 1999, Thompson et al. 1997) of the same molecule?
Answer: Its post-prandial glucose excursions is “improves”.
